Data taken from publication PMC3672920, “Sulfated Metabolites of Polychlorinated Biphenyls Are High-Affinity Ligands for the Thyroid Hormone Transport Protein Transthyretin” (Environmental Health Perspectives, 2013).
Counter-ions that a name gives are not always drawn.

Experiments:
[1] = target: T1, TTR (Homo sapiens, UniProt P02766); test: HPLC analysis of PCB sulfates after incubation with TTR (stability, reversibility); assay type: physicochemical; details: 5 µM PCB sulfate, 0.5 µM TTR, phosphate buffer pH 7.4, 25°C, up to 120 min
T1 construct: TTR purified from human plasma (> 95%); purchased Sigma-Aldrich; host or cells: human plasma
Protocol: HPLC analysis of PCB sulfates. TTR (0.5 µM) and PCB sulfate (5 µM) were incubated in phosphate buffer (50 mM sodium phosphate, 100 mM NaCl; pH 7.4) at 25°C (± 0.5°C) for 120 min. After 0, 60, and 120 min, 20 µL samples were analyzed for PCB sulfates by chromatography on a C18 HPLC column with a linear acetonitrile gradient (15–95%) in triethylammonium acetate (1% vol/vol; pH 7.5). Detailed HPLC conditions and representative chromatograms are provided in Supplemental Material, Figure S3 (http://dx.doi.org/10.1289/ehp.1206198).
Supplemental Material, Fi g u r e S6: PCB sulfates are stable upon incubation with TTR, and the interaction is non-covalent. 5µM samples of PCB sulfates were incubated for up t o 120 […]
sodium phosphate, 100 mM NaCl, pH 7.4) at 25 °C. Their quantitative recover y (as compared to a corresponding 5 µM PCB sulfate standard) by HPLC indicated non- covalent binding interactions between PCB sulfates and TTR.
(1 picture or pasted object on this page, not shown here)

[2] = target: T2, TTR purified from human plasma (Homo sapiens, UniProt P02766); test: ANS displacement assay (fluorescence probe displacement) for binding to TTR; details: low-affinity (second) binding site on TTR; ligand ≤ 2,000 nM; all data points fit to two-site binding equation; read-out: Kd2
T2 construct: TTR purified from human plasma (> 95%); purchased Sigma-Aldrich; host or cells: human plasma
Protocol: Three fluorescence measurements were averaged per determination, and at least three separate determinations were made at each ligand concentration. The protocol was optimized for ligand concentrations of ≤ 2,000 nM, and assays were conducted at 25°C (± 0.2°C) in quartz cuvettes with a 1-cm path length. […] Binding data were evaluated by fitting the means of each determination to both a one-site plus nonspecific binding equation [y = (Bmax1 × x)/(Kd1 + x) + Ns] and a two-site binding equation [y = (Bmax1 × x)/(Kd1 + x) + (Bmax2 × x)/(Kd2 + x)]. In these equations, Kd1 is the dissociation constant for the TTR-ligand complex and Kd2 is the dissociation constant for the TTR complex with two bound ligands, Bmax1 and Bmax2 are the relative changes in fluorescence required to saturate the respective binding sites and Ns is a constant representing low-affinity interactions. […] The variables x and y represent ligand concentrations and changes in fluorescence (Δ fluorescence), respectively. […] In order to determine Kd2 values, all available data points were fit to the two-site binding equation.

[3] = test system: T3, recombinant hSULT1A1; test: Sulfotransferase assay (PAP formation, HPLC); assay type: in vitro ADME, human; details: 200 µM PAPS, 37°C, pH 7.0, 10 min; for substrate for human SULT1A1: 0, 10, 20 or 30 µM OH-PCB, cytosolic extract of E. coli expressing hSULT1A1; for specific activity (rate of sulfation) with hSULT1A1, ranking in words: 10–30 µM OH-PCB
T3 construct: purchased Xenotech; host or cells: E. coli
Protocol: Sulfotransferase assay. The assays for sulfation of OH-PCBs catalyzed by hSULT1A1 were conducted according to a previously published procedure ([Liu et al. 2009]). Assay mixtures containing 0, 10, 20, or 30 µM of the potential substrate were preincubated at 37°C in the presence of 200 µM PAPS and 7.5 mM 2-mercaptoethanol in 250 mM potassium phosphate at pH 7.0. After adding 1 µL of cytosolic extract of E. coli expressing hSULT1A1 (10 µg cytosolic protein), the reaction mixture (total volume 30 µL) was incubated for 10 min before the reaction was terminated by the addition of 30 µL methanol. Samples (20 µL) were subsequently analyzed by HPLC to determine the amount of PAP formed in the reaction ([Sheng et al. 2001]).

Structure (SMILES) | recovery of PCB sulfate by HPLC after incubation with TTR (stability) [1] | Kd [2] [nM] | substrate for human SULT1A1 [3] | specific activity (rate of sulfation) with hSULT1A1, ranking in words [3] | melting point
O=S(=O)(O)Oc1ccc(-c2ccc(Cl)cc2)cc1 [4´PCB 3 sulfate, 4-chloro-4´-sulfooxy-biphenyl] | quantitatively recovered | – | – | – | –
O=S(=O)(O)Oc1ccc(-c2cccc(Cl)c2)cc1Cl [4´PCB 11 sulfate, 3,3´-dichloro-4´-sulfooxy-biphenyl] | quantitatively recovered | 624 ± 63 | – | – | –
Oc1ccccc1-c1ccc(Cl)cc1 [2´OH-PCB 3, 4´-chloro-biphenyl-2-ol] | – | – | substrates | highest specific activities | –
O=S(=O)(O)Oc1ccc(-c2ccc(Cl)c(Cl)c2)cc1 [4´PCB 12 sulfate, 3,4-dichloro-4´-sulfooxy-biphenyl] | quantitatively recovered | 742 ± 58 | – | – | –
O=S(=O)(O)Oc1cccc(-c2ccc(Cl)cc2)c1 [3´PCB 3 sulfate, 3´-sulfooxy-4-chloro-biphenyl] | quantitatively recovered | – | – | – | –
O=S(=O)(O)Oc1ccccc1-c1ccc(Cl)cc1 [2´PCB 3 sulfate, 2´-sulfooxy-4-chloro-biphenyl] | quantitatively recovered | – | – | – | –
Oc1ccc(-c2ccc(Cl)c(Cl)c2)cc1 [4´OH-PCB 12, 3´,4´-dichloro-biphenyl-4-ol] | – | 825 ± 47 | substrates | slightly lower specific activities | –
Oc1ccc(-c2cccc(Cl)c2)cc1Cl [4´OH-PCB 11, 3,3´-dichloro-biphenyl-4-ol] | – | 624 ± 207 | substrates | slightly lower specific activities | –
O=S(=O)(O)Oc1ccc(-c2cccc(Cl)c2)cc1Cl (as salt: ammonium) [4´PCB 11 sulfate, 3,3´-dichloro-4´-sulfooxy-biphenyl] | – | – | – | – | 220 °C (dec.)
Oc1cccc(-c2ccc(Cl)cc2)c1 [3´OH-PCB 3, 4´-chloro-biphenyl-3-ol] | – | – | substrates | highest specific activities | –
Oc1ccc(-c2ccc(Cl)cc2)cc1 [4´OH-PCB 3, 4´-chloro-biphenyl-4-ol] | – | – | substrates | slightly lower specific activities | –
